SMILES strings stand for the structures.

The target of assay [1] is Sodium/potassium-transporting ATPase subunit alpha-2/beta-1 (Homo sapiens, UniProt P05026+P50993). Nature of the assay: Na,K-ATPase Inhibition Assay.
Assay [2] concerns the target Sodium/potassium-transporting ATPase subunit alpha-1/beta-1 (Homo sapiens, UniProt P05023+P05026). The experiment in a line: Na,K-ATPase Inhibition Assay.

The term Ki denotes a measure of affinity in units of concentration, obtained from inhibition or displacement. A high value points to weaker binding. Regarding `CC1CN(CC(=O)O)CCC(O[C@@H]2[C@H](C)O[C@@H](O[C@@H]3[C@H](C)O[C@@H](O[C@H]4CC[C@@]5(C)C(CCC6C5C[C@H](O)[C@]5(C)[C@@H](C7=CC(=O)OC7)CC[C@]65O)C4)C[C@@H]3O)C[C@@H]2O)O1` (some centres not stated) [DGly (2)], the values for the Ki in assay [1] and in assay [2] were 25 nM and 124 nM, respectively.

As for `CC1CN(O)CCC(O[C@@H]2[C@H](C)O[C@@H](O[C@@H]3[C@H](C)O[C@@H](O[C@H]4CC[C@@]5(C)C(CCC6C5C[C@H](O)[C@]5(C)[C@@H](C7=CC(=O)OC7)CC[C@]65O)C4)C[C@@H]3O)C[C@@H]2O)O1` (some centres not stated) [DOH (1)], the Ki was 134 nM in assay [1] and 311 nM in assay [2].

As for `CC1CN(CC(F)(F)F)CCC(O[C@@H]2[C@H](C)O[C@@H](O[C@@H]3[C@H](C)O[C@@H](O[C@H]4CC[C@@]5(C)C(CCC6C5C[C@H](O)[C@]5(C)[C@@H](C7=CC(=O)OC7)CC[C@]65O)C4)C[C@@H]3O)C[C@@H]2O)O1` (some centres not stated) [DMeCF3 (13)], the inhibitory constant (Ki) in assay [1] is 44 nM; in assay [2], 199 nM.

Turning to `C[C@H]1O[C@@H](O[C@H]2[C@@H](O)C[C@H](O[C@H]3CC[C@@]4(C)[C@H](CC[C@@H]5[C@@H]4C[C@@H](O)[C@]4(C)[C@@H](C6=CC(=O)OC6)CC[C@]54O)C3)O[C@@H]2C)C[C@H](O)[C@@H]1O` [Dbis], the Ki amounted to 74 nM in assay [1] and 196 nM in assay [2].

Turning to `CC1CN(C)CCC(O[C@@H]2[C@H](C)O[C@@H](O[C@@H]3[C@H](C)O[C@@H](O[C@H]4CC[C@@]5(C)C(CCC6C5C[C@H](O)[C@]5(C)[C@@H](C7=CC(=O)OC7)CC[C@]65O)C4)C[C@@H]3O)C[C@@H]2O)O1` (some centres not stated) [DMe (11)], the Ki in assay [1] was determined as 15.6 nM; in assay [2], 101 nM.

Consider `CC1CN(CCN)CCC(O[C@@H]2[C@H](C)O[C@@H](O[C@@H]3[C@H](C)O[C@@H](O[C@H]4CC[C@@]5(C)C(CCC6C5C[C@H](O)[C@]5(C)[C@@H](C7=CC(=O)OC7)CC[C@]65O)C4)C[C@@H]3O)C[C@@H]2O)O1` (some centres not stated) [DEtDA (10)], for which the Ki in assay [1] was 16.7 nM; in assay [2], 69 nM.

As to `CC1CN(C(CC(=O)O)CC(=O)O)CCC(O[C@@H]2[C@H](C)O[C@@H](O[C@@H]3[C@H](C)O[C@@H](O[C@H]4CC[C@@]5(C)C(CCC6C5C[C@H](O)[C@]5(C)[C@@H](C7=CC(=O)OC7)CC[C@]65O)C4)C[C@@H]3O)C[C@@H]2O)O1` (some centres not stated) [DbisGly (14)], the results for the Ki in assay [1] and in assay [2] were 34.9 nM and 80 nM, respectively.

With `CC1CN(C(CO)C(=O)O)CCC(O[C@@H]2[C@H](C)O[C@@H](O[C@@H]3[C@H](C)O[C@@H](O[C@H]4CC[C@@]5(C)C(CCC6C5C[C@H](O)[C@]5(C)[C@@H](C7=CC(=O)OC7)CC[C@]65O)C4)C[C@@H]3O)C[C@@H]2O)O1` (some centres not stated) [DSer (6)], the inhibitory constant (Ki) in assay [1] was 145 nM; in assay [2] it was 316 nM.

For the compound `CC1CN(CCC(N)=O)CCC(O[C@@H]2[C@H](C)O[C@@H](O[C@@H]3[C@H](C)O[C@@H](O[C@H]4CC[C@@]5(C)C(CCC6C5C[C@H](O)[C@]5(C)[C@@H](C7=CC(=O)OC7)CC[C@]65O)C4)C[C@@H]3O)C[C@@H]2O)O1` (some centres not stated) [DPrN (9)], the results for the inhibitory constant (Ki) in assay [1] and in assay [2] were 47 nM and 249 nM, respectively.

For the compound `CC1CN(CC(N)=O)CCC(O[C@@H]2[C@H](C)O[C@@H](O[C@@H]3[C@H](C)O[C@@H](O[C@H]4CC[C@@]5(C)C(CCC6C5C[C@H](O)[C@]5(C)[C@@H](C7=CC(=O)OC7)CC[C@]65O)C4)C[C@@H]3O)C[C@@H]2O)O1` (some centres not stated) [DGlyN (4)], the figures for the Ki in assay [1] and in assay [2] were 20.4 nM and 152 nM, respectively.

As for `CC1CN(NC(N)=O)CCC(O[C@@H]2[C@H](C)O[C@@H](O[C@@H]3[C@H](C)O[C@@H](O[C@H]4CC[C@@]5(C)C(CCC6C5C[C@H](O)[C@]5(C)[C@@H](C7=CC(=O)OC7)CC[C@]65O)C4)C[C@@H]3O)C[C@@H]2O)O1` (some centres not stated) [DSCar (8)], the Ki in assay [1] is 20 nM; in assay [2], 102 nM.

Take `CC1CN(C(CO)C(N)=O)CCC(O[C@@H]2[C@H](C)O[C@@H](O[C@@H]3[C@H](C)O[C@@H](O[C@H]4CC[C@@]5(C)C(CCC6C5C[C@H](O)[C@]5(C)[C@@H](C7=CC(=O)OC7)CC[C@]65O)C4)C[C@@H]3O)C[C@@H]2O)O1` (some centres not stated) [DSerN (7)]: the inhibition constant (Ki) in assay [1] came to 144 nM; in assay [2] it was 242 nM.

With `C[C@]12CC[C@H](O)C[C@H]1CC[C@@H]1[C@@H]2C[C@@H](O)[C@]2(C)[C@@H](C3=CC(=O)OC3)CC[C@]12O` [CS337], the results for the inhibition constant Ki in assay [1] and in assay [2] were 130 nM and 139 nM, respectively.

As for `CC1CN(C(C)C(N)=O)CCC(O[C@@H]2[C@H](C)O[C@@H](O[C@@H]3[C@H](C)O[C@@H](O[C@H]4CC[C@@]5(C)C(CCC6C5C[C@H](O)[C@]5(C)[C@@H](C7=CC(=O)OC7)CC[C@]65O)C4)C[C@@H]3O)C[C@@H]2O)O1` (some centres not stated) [DAlaN (5)], the inhibition constant (Ki) came out at 67 nM in assay [1] and 232 nM in assay [2].

Take `CCN1CCC(O[C@@H]2[C@H](C)O[C@@H](O[C@@H]3[C@H](C)O[C@@H](O[C@H]4CC[C@@]5(C)C(CCC6C5C[C@H](O)[C@]5(C)[C@@H](C7=CC(=O)OC7)CC[C@]65O)C4)C[C@@H]3O)C[C@@H]2O)OC(C)C1` (some centres not stated) [DEt (12)]: the inhibition constant Ki was found to be 18.5 nM in assay [1] and 53 nM in assay [2].

Regarding `COC(=O)CN1CCC(O[C@@H]2[C@H](C)O[C@@H](O[C@@H]3[C@H](C)O[C@@H](O[C@H]4CC[C@@]5(C)C(CCC6C5C[C@H](O)[C@]5(C)[C@@H](C7=CC(=O)OC7)CC[C@]65O)C4)C[C@@H]3O)C[C@@H]2O)OC(C)C1` (some centres not stated) [DGlMe (3)], the inhibition constant Ki in assay [1] is 128 nM; in assay [2] it was 540 nM.

Source of the values: BindingDB's records for doi:10.1074/jbc.M114.557629 (Weizmann Institute of Science, 2014).
